From patent publication US10344019B2 (priority 2010, dated 2019)
Where two headings read alike, the source gives them in different places.

Tests used:
Type in all cases: cell-based
[1] = tested on: HCV 1a RLuc cells (dicistronic genotype 1a H77 replicon, RLuc reporter); assay: microbe, parasite or virus in culture; conditions: Hepatitis C virus, read-out: 1a
In short: (§1)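 Replicons used: genotype 1b Con1, 1a H77, 2a JFH-1, and a 2a JFH-1 chimera with J6-strain NS5A (M31 present), all dicistronic.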

[2] = tested on: HCV 1b RLuc cells (dicistronic genotype 1b Con1 replicon, RLuc reporter); assay: microbe, parasite or virus in culture; conditions: Hepatitis C virus, read-out: 1b (nM)
In short: as §1

[3] = tested on: HCV 2a JFH-1 Rluc cells (dicistronic genotype 2a JFH-1 replicon, RLuc reporter); assay: microbe, parasite or virus in culture; conditions: Hepatitis C virus, read-out: 2a JFH
In short: as §1

[4] = tested on: HCV 2b Rluc cells (NS5A chimeric genotype 2a JFH-1 replicon with genotype 2b MD2b-1 NS5A gene, M31 present); assay: microbe, parasite or virus in culture; conditions: Hepatitis C virus, read-out: 2b
In short: (§2)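 Replicon cells stably carrying the listed RLuc-encoding dicistronic replicons were seeded and treated with DMSO serial dilutions of compound (10 mM stocks) diluted into culture medium. After 72 h, cells were lysed and Renilla luciferase activity measured. EC50 was derived by non-linear regression.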

[5] = tested on: HCV 3a RLuc cells (NS5A chimeric genotype 1b Con1 replicon with consensus genotype 3a NS5A gene); assay: microbe, parasite or virus in culture; conditions: Hepatitis C virus
In short: as §2

[6] = tested on: HCV 4a Rluc cells (NS5A chimeric genotype 1b Con1 replicon with genotype 4a NS5A gene); assay: microbe, parasite or virus in culture; conditions: Hepatitis C virus, read-out: 4a
In short: as §2

[7] = tested on: HCV 2a Rluc cells (NS5A chimeric genotype 2a JFH-1 replicon with genotype 2a J6 strain NS5A gene, M31 present); assay: HCV replicon reporter assay, genotype 2a J6 (M31 present); conditions: Hepatitis C virus, read-out: 2a J6
In short: as §1

[8] = read-out: 3a, genotype 3a replicon
[9] = genotype 2a JFH-1 RLuc replicon

## COC(=O)N[C@H](C(=O)N1CC2(C[C@H]1c1nc3ccc4cc(-c5ccc6c(ccc7nc([C@@H]8C[C@H]9C[C@H]9N8C(=O)[C@H](NC(=O)OC)c8ccccc8)[nH]c76)c5)ccc4c3[nH]1)OCCO2)C(C)C [Example 356]
[1]; genotype 1a replicon
  EC50: 0.001 to 0.999 nM
[2]
  EC50: 0.022 nM
[3]; genotype 2a JFH-1 replicon
  EC50: 0.001 to 0.999 nM
[4]
  EC50: 0.001 to 0.999 nM
[5]; [8]
  EC50: 0.001 to 0.99 nM
[6]
  EC50: 0.001 to 0.99 nM
[7]
  EC50: 0.001 to 0.999 nM

## O=C([C@H](Nc1ncccn1)c1ccccc1)N1CCC[C@H]1c1ncc(-c2cc3c4c(c2)OCc2cc(-c5cnc([C@@H]6CCCN6C(=O)[C@H](Nc6ncccn6)c6ccccc6)[nH]5)cc(c2-4)OC3)[nH]1 [Example 463]
[1]; genotype 1a replicon
  EC50: 1 to 44 nM
[3]; genotype 2a JFH-1 replicon
  EC50: 1 to 44 nM
[4]
  EC50: > 44 nM
[5]; [8]
  EC50: 1 to 4.99 nM
[6]
  EC50: > 5 nM
[7]
  EC50: > 44 nM

## COC(=O)N[C@H](C(=O)N1CCC[C@H]1c1nc2ccc3cc(-c4ccc5c(ccc6nc([C@@H]7C[C@H](SC)CN7C(=O)[C@H](NC(=O)OC)c7ccccc7)[nH]c65)c4)ccc3c2[nH]1)C(C)C [Example 535]
[1]; genotype 1a H77 RLuc replicon
  EC50: 0.001 to 0.999 nM
[2]
  EC50: 0.022 nM
[3]; [9]
  EC50: 0.001 to 0.999 nM
[4]
  EC50: 0.001 to 0.999 nM
[6]
  EC50: 0.001 to 0.99 nM
[7]
  EC50: 0.001 to 0.999 nM

## CC[C@H](C)[C@H](NC(=O)OC)C(=O)N1C[C@@H](COC)C[C@H]1c1ncc(-c2ccc3c(c2)COc2cc4c(ccc5nc([C@@H]6C[C@H](COC)CN6C(=O)[C@@H](NC(=O)OC)[C@@H](C)CC)[nH]c54)cc2-3)[nH]1 [Example 580]
[1]; genotype 1a H77 RLuc replicon
  EC50: 0.001 to 0.999 nM
[3]; [9]
  EC50: 0.001 to 0.999 nM
[4]
  EC50: 0.001 to 0.999 nM
[5]; read-out: 3a, genotype 3a NS5A chimeric replicon
  EC50: 0.001 to 0.99 nM
[6]
  EC50: 0.001 to 0.99 nM
[7]
  EC50: 0.001 to 0.999 nM

## COC[C@H]1C[C@@H](c2ncc(-c3ccc(-c4ccc(-c5cnc([C@@H]6C[C@H]7C[C@H]7N6C(=O)[C@H](NC(=O)C6CC6)c6ccccc6)[nH]5)cc4)cc3)[nH]2)N(C(=O)[C@@H](NC(=O)OC)C(C)C)C1 [Example 519]
[1]; genotype 1a H77 RLuc replicon
  EC50: 0.001 to 0.999 nM
[2]
  EC50: 0.01 nM
[3]; [9]
  EC50: 0.001 to 0.999 nM
[4]
  EC50: 0.001 to 0.999 nM
[6]
  EC50: 0.001 to 0.99 nM
[7]
  EC50: 0.001 to 0.999 nM

## COC[C@H]1C[C@@H](c2nc3ccc4cc(-c5ccc6c(ccc7nc([C@@H]8CCCN8C(=O)[C@@H](NC(=O)OC)C(C)C)[nH]c76)c5)ccc4c3[nH]2)N(C(=O)[C@H](NC(=O)C2CCC2)c2ccccc2)C1 [Example 537]
[1]; genotype 1a H77 RLuc replicon
  EC50: 0.001 to 0.999 nM
[2]
  EC50: 0.014 nM
[3]; [9]
  EC50: 0.001 to 0.999 nM
[4]
  EC50: 0.001 to 0.999 nM
[6]
  EC50: 0.001 to 0.99 nM
[7]
  EC50: 0.001 to 0.999 nM

## COC[C@H]1C[C@@H](c2nc3ccc4cc(-c5ccc6c(ccc7nc([C@@H]8C[C@H](C)CN8C(=O)[C@@H](NC(=O)OC)C(C)C)[nH]c76)c5)ccc4c3[nH]2)N(C(=O)[C@H](NC(=O)C2CCC2)c2ccccc2)C1 [Example 541]
[1]; genotype 1a H77 RLuc replicon
  EC50: 0.001 to 0.999 nM
[2]
  EC50: 0.034 nM
[3]; [9]
  EC50: 0.001 to 0.999 nM
[4]
  EC50: 0.001 to 0.999 nM
[6]
  EC50: 0.001 to 0.99 nM
[7]
  EC50: 0.001 to 0.999 nM

## COC[C@H]1C[C@@H](c2nc3ccc4cc(-c5ccc(-c6cnc([C@@H]7CCCN7C(=O)[C@@H](NC(=O)OC)C(C)C)[nH]6)cc5)ccc4c3[nH]2)N(C(=O)[C@H](NC(=O)C2CCC2)c2ccccc2)C1 [Example 533]
[1]; genotype 1a H77 RLuc replicon
  EC50: 0.001 to 0.999 nM
[2]
  EC50: 0.012 nM
[3]; [9]
  EC50: 0.001 to 0.999 nM
[4]
  EC50: 0.001 to 0.999 nM
[6]
  EC50: 0.001 to 0.99 nM
[7]
  EC50: 0.001 to 0.999 nM

## COC[C@H]1C[C@@H](c2nc3ccc4cc(-c5ccc6c(ccc7nc([C@@H]8C[C@H](C)CN8C(=O)[C@@H](NC(=O)OC)C(C)C)[nH]c76)c5)ccc4c3[nH]2)N(C(=O)[C@H](NC(=O)C2CC(F)(F)C2)c2ccccc2)C1 [Example 542]
[1]; genotype 1a H77 RLuc replicon
  EC50: 0.001 to 0.999 nM
[2]
  EC50: 0.05 nM
[3]; [9]
  EC50: 0.001 to 0.999 nM
[4]
  EC50: 0.001 to 0.999 nM
[6]
  EC50: 0.001 to 0.99 nM
[7]
  EC50: 0.001 to 0.999 nM

## COC[C@H]1C[C@@H](c2nc3ccc4cc5c(cc4c3[nH]2)OCc2cc(-c3ccc4nc([C@@H]6CCCN6C(=O)[C@@H](NC(=O)OC)C(C)C)[nH]c4c3)ccc2-5)N(C(=O)[C@@H](NC(=O)OC)C(C)C)C1 [Example 563]
[1]; genotype 1a H77 RLuc replicon
  EC50: 0.001 to 0.999 nM
[2]
  EC50: 0.007 nM
[3]; [9]
  EC50: 0.001 to 0.999 nM
[4]
  EC50: > 44 nM
[6]
  EC50: 0.001 to 0.99 nM
[7]
  EC50: > 44 nM

## CN1CCN(C(=O)N[C@@H](C(=O)N2CCC[C@H]2c2ncc(-c3cc4c5c(c3)OCc3cc(-c6cnc([C@@H]7CCCN7C(=O)[C@H](NC(=O)N7CCN(C)CC7)c7ccccc7)[nH]6)cc(c3-5)OC4)[nH]2)c2ccccc2)CC1 [Example 464]
[1]; genotype 1a replicon
  EC50: > 44 nM
[3]; genotype 2a JFH-1 replicon
  EC50: 1 to 44 nM
[4]
  EC50: > 44 nM
[5]; [8]
  EC50: 1 to 4.99 nM
[6]
  EC50: > 5 nM
[7]
  EC50: 1 to 44 nM

## COC(=O)N[C@H](C(=O)N1CCC[C@H]1c1ncc(-c2cc3c4c(c2)OCc2cc(-c5cnc([C@@H]6CCCN6C(=O)[C@H](NC(=O)C6CCC6)c6ccccc6)[nH]5)cc(c2-4)OC3)[nH]1)C(C)C [Example 521]
[1]; genotype 1a H77 RLuc replicon
  EC50: 0.001 to 0.999 nM
[2]
  EC50: 0.028 nM
[3]; [9]
  EC50: 0.001 to 0.999 nM
[4]
  EC50: 0.001 to 0.999 nM
[6]
  EC50: 0.001 to 0.99 nM
[7]
  EC50: 0.001 to 0.999 nM

## COC[C@H]1C[C@@H](c2nc3ccc4cc(-c5ccc6c(ccc7nc([C@@H]8C[C@H]9C[C@H]9N8C(=O)[C@@H](NC(=O)OC)C(C)(C)C)[nH]c76)c5)ccc4c3[nH]2)N(C(=O)[C@H](NC(=O)C2CC2)c2ccccc2)C1 [Example 532]
[1]; genotype 1a H77 RLuc replicon
  EC50: 0.001 to 0.999 nM
[2]
  EC50: 0.009 nM
[3]; [9]
  EC50: 0.001 to 0.999 nM
[4]
  EC50: 0.001 to 0.999 nM
[6]
  EC50: 0.001 to 0.99 nM
[7]
  EC50: 0.001 to 0.999 nM

## CN(C)CCC(=O)N[C@@H](C(=O)N1CCC[C@H]1c1ncc(-c2cc3c4c(c2)OCc2cc(-c5cnc([C@@H]6CCCN6C(=O)[C@H](NC(=O)CCN(C)C)c6ccccc6)[nH]5)cc(c2-4)OC3)[nH]1)c1ccccc1 [Example 467]
[1]; genotype 1a replicon
  EC50: > 44 nM
[3]; genotype 2a JFH-1 replicon
  EC50: > 44 nM
[4]
  EC50: > 44 nM
[5]; [8]
  EC50: > 5 nM
[6]
  EC50: > 5 nM
[7]
  EC50: > 44 nM

## COC[C@H]1C[C@@H](c2ncc(-c3ccc(-c4ccc(-c5cnc([C@@H]6C[C@H](C)CN6C(=O)[C@H](NC(=O)C6CC6)c6ccccc6)[nH]5)cc4)cc3)[nH]2)N(C(=O)[C@@H](NC(=O)OC)C(C)C)C1 [Example 557]
[1]; genotype 1a H77 RLuc replicon
  EC50: 0.001 to 0.999 nM
[2]
  EC50: 0.028 nM
[3]; [9]
  EC50: 0.001 to 0.999 nM
[4]
  EC50: 0.001 to 0.999 nM
[6]
  EC50: 0.001 to 0.99 nM
[7]
  EC50: 0.001 to 0.999 nM

## COC[C@H]1C[C@@H](c2nc3ccc4cc(-c5ccc6c(ccc7nc([C@@H]8C[C@H]9C[C@H]9N8C(=O)[C@@H](NC(=O)OC)C(C)(C)C)[nH]c76)c5)ccc4c3[nH]2)N(C(=O)[C@H](NC(=O)OC)c2ccccc2)C1 [Example 530]
[1]; genotype 1a H77 RLuc replicon
  EC50: 0.001 to 0.999 nM
[2]
  EC50: 0.011 nM
[3]; [9]
  EC50: 0.001 to 0.999 nM
[4]
  EC50: 0.001 to 0.999 nM
[6]
  EC50: 0.001 to 0.99 nM
[7]
  EC50: 0.001 to 0.999 nM

## COC[C@H]1C[C@@H](c2nc3ccc4cc(-c5ccc(-c6[nH]c([C@@H]7CCCN7C(=O)[C@@H](NC(=O)OC)C(C)C)nc6C)cc5)ccc4c3[nH]2)N(C(=O)[C@@H](NC(=O)OC)C(C)C)C1 [Example 524]
[1]; genotype 1a H77 RLuc replicon
  EC50: 0.001 to 0.999 nM
[2]
  EC50: 0.02 nM
[3]; [9]
  EC50: 0.001 to 0.999 nM
[4]
  EC50: 1 to 44 nM
[6]
  EC50: 0.001 to 0.99 nM
[7]
  EC50: > 44 nM

## CC[C@H](C)[C@H](NC(=O)OC)C(=O)N1[C@@H]2C[C@@H]2C[C@H]1c1nc2ccc3cc(-c4ccc5c(ccc6nc([C@@H]7C[C@H](COC)CN7C(=O)[C@H](NC(=O)OC)c7ccccc7)[nH]c65)c4)ccc3c2[nH]1 [Example 529]
[1]; genotype 1a H77 RLuc replicon
  EC50: 0.001 to 0.999 nM
[2]
  EC50: 0.013 nM
[3]; [9]
  EC50: 0.001 to 0.999 nM
[4]
  EC50: 0.001 to 0.999 nM
[6]
  EC50: 0.001 to 0.99 nM
[7]
  EC50: 0.001 to 0.999 nM
